This is an account of results in patent US6348487B1, “2-phenyl benzimidazole derivatives as MCP-1 antagonists” (Millennium Pharmaceuticals, Inc., priority 1996, dated 2002).

Where “and” joins values, the source holds several entries; their conditions need not be identical. Equal values may be shown once.

System in one data set: not given
Assay: not given
Settings: not given
`COc1ccc2nc(-c3ccc(N(C)CCN4CCCCC4)cc3)[nH]c2c1.Cl.Cl`: the melting point (commonly the temperature of the solid-liquid transition) amounted to 273 °C.

`CN(CCN1CCCCC1)c1ccc(-c2nc3ccc(Cl)cc3[nH]2)cc1` [Example 4, [4-[6-Chloro-1H-benzoimidazol-2-yl)-phenyl]-methyl-(2-piperidin-1-yl-ethyl)-amine]: the melting point came to 196 °C. `CN(CCN1CCCCC1)c1ccc(-c2nc3cc(Cl)c(F)cc3[nH]2)cc1` [Example 5, [4-(5-Chloro-6-fluoro-1H-benzoimidazol-2-yl)-phenyl]-methyl-(2-piperidin-1-yl-ethyl)-amine] registered a melting point of 167 to 168 °C.

Consider `Cc1ccc2nc(-c3ccc(N(C)CCN4CCCCC4)cc3)[nH]c2c1` [Example 6, Methyl-[4-(6-methyl-1H-benzoimidazol-2-yl)-phenyl]-(2-piperidin-1-yl-ethyl)-amine], for which the melting point amounted to 165 °C.

The compound `Cc1cc2nc(-c3ccc(N(C)CCN4CCCCC4)cc3)[nH]c2cc1C` [Example 7, [4-(5,6-Dimethyl-1H-benzoimidazol-2-yl)-phenyl]-methyl-(2-piperidin-1-yl-ethyl)-amine] gave a melting point of 194 to 196 °C. Take `CN(CCN1CCCCC1)c1ccc(-c2nc3ccc(Cl)c(Cl)c3[nH]2)cc1` [Example 8, [4-(6,7-Dichloro-1H-benzoimidazol-2-yl)-phenyl]-methyl-(2-piperidin-1-yl-ethyl)-amine]: the melting point was 164 °C.

As to `CN(CCN1CCCCC1)c1ccc(C2=Nc3ccc(Cl)cc3C2)cc1` [Example 10, [4-(5-Chloro-3H-indol-2-yl)-phenyl]-methyl-(2-piperidin-1-yl-ethyl)-amine], the melting point is 192 °C.

Another data set deals with T1, MCP-1 receptor (Homo sapiens, UniProt P41597).
T1 construct: host or cells: THP-1 (human monocytic cell line), membrane preparation
T1 sequence (P41597 1-360 isoform P41597-2): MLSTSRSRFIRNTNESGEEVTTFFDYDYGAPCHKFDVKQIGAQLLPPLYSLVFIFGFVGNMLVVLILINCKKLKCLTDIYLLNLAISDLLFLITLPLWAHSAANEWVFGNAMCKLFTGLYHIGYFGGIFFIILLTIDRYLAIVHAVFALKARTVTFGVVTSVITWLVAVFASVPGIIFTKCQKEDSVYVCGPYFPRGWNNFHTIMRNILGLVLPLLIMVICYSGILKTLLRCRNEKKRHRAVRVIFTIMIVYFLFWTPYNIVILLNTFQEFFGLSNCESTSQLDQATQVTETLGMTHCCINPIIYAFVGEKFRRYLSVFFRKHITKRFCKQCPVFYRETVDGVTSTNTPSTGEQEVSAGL
In words: MCP-1 Receptor Binding Assay (I125-labeled MCP-1, THP-1 cell membranes). The conditions noted are these: THP-1 membranes, 0.2 nM I125-labeled MCP-1. As for the experimental part:
Membranes used in the MCP-1 binding assay were prepared from THP-1 cells (human monocytic cell line source—American Type Culture Collection, Tumor Immunology Bank #202, Rockville, Md., accession no. ATCC TIB 202). Cells were harvested by centrifugation and washed twice in ice-cold PBS (phosphate-buffered saline) and the cell pellet was frozen at −80° C. in some cases. Cells were resuspended in ice-cold lysis buffer 5 mM HEPES (2-(4N-[2-hydroxyethyl]piperazin-1-yl)-N′-(2-ethanesulfonic acid), pH 7.5, 2 mM EDTA (ethylenediaminetetraacetic acid), 5 μg/mL each leupeptin, aprotinin, chymostatin (protease inhibitors), and 100 μg/mL PMSF (phenylmethane sulfonyl fluoride—also a protease inhibitor)) at a concentration of 5×10^7 cells/mL. The cell suspension was dounced 10-15 times using the B pestle (small pestle of tissue grinder—clearance is 0.07 mm; source—Fisher Scientific) on ice. Nuclei and debris were removed by centrifugation at 500-1000×g for 10 minutes at 4° C. The supernatant was transferred to a fresh tube and centrifuged at 25,000×g for 30 minutes at 4° C. The supernatant was aspirated and the pellet was resuspended in freezing buffer (10 mM HEPES, pH 7.5, 300 mM sucrose, 1 μg/mL each leupeptin, aprotinin, chymostatin, and 10 μg/mL PMSF) using a minihomogenizer until all clumps were resolved. Membranes were aliquoted and frozen at minus 70-85° C. until needed. Typical binding assays used 10-20 μg/well of total membrane protein as determined with a standard protein assay (e.g. Bradford protein assay, BioRad, Richmond, Calif.).
For binding, 10-20 μg of total membrane protein were included in the binding reaction along with 0.2 nM I^125-labeled MCP-1 (Amersham, Arlington Heights, Ill.) with or without unlabeled competitor MCP-1 (Peprotech, Rocky Hill, N.J.) (at 500 nM). Binding reactions were performed in a final volume of 100 μl in a binding buffer containing 10 mM HEPES, pH 7.2, 1 mM CaCl2, 5 mM MgCl2, 0.5% BSA (bovine serum albumin). After 30-60 minutes at room temperature, the binding reactions were filtered through GF/C filters (Whatman glass fiber filters, Type C) or GF/B unifilter plates (Packard) which had been pre-soaked with 0.3% polyethyleneimine and washed twice with binding buffer containing 0.5 M NaCl. Filters were dried and counted in a Beta-Plate scintillation counter using standard scintillation fluid. Final concentration of compound in the binding assay ranged from 0.05-100 μM. Compounds were dissolved in DMSO (dimethyl sulfoxide). Final concentrations of DMSO in the binding were kept constant at 0.5%.
IC50s were calculated using a non-linear 3-parameter logistic curve fit. IC50 means the concentration at which 50% inhibition is achieved. Negative controls contained the same amount of DMSO vehicle as used in wells containing compound. Positive control contained 250-500 nM cold competitor MCP-1 in DMSO vehicle. Non-specific binding (the level of bound ^125I-labeled MCP-1 in the presence of […] unlabeled MCP-1) was subtracted from all data prior to analysis.
Take `CN(CCN1CCCCC1)c1ccc(-c2nc3ccccc3[nH]2)cc1`: the half-maximal inhibitory concentration (IC50) – broadly, the concentration that inhibits the measured activity by half – came out at 10.9 µM. `CN(CCN1CCCCC1)c1ccc(-c2nc3ccc(C(F)(F)F)cc3[nH]2)cc1` had an IC50 of 15.5 µM. As to `CN(CCN1CCCCC1)c1ccc(-c2nc3ccc(C(C)(C)C)cc3[nH]2)cc1`, the IC50 came out at 3.1 µM. `CN(CCN1CCCCC1)c1ccc(-c2nc3ccc(F)cc3[nH]2)cc1` returned an IC50 of 8.6 µM. For `CN(CCN1CCCCC1)c1ccc(-c2nc3cc4ccccc4cc3[nH]2)cc1`, the IC50 was 12.1 µM.

`CN(CCN1CCCCC1)c1ccc(-c2nc3cc4c(cc3[nH]2)Cc2ccccc2-4)cc1` gave an IC50 of 20.7 µM. In the case of `CCCCc1ccc2nc(-c3ccc(N(C)CCN4CCCCC4)cc3)[nH]c2c1`, the IC50 was determined as 11.5 µM. As for `CN(CCN1CCCCC1)c1ccc(-c2nc3ccc(-c4ccccc4)cc3[nH]2)cc1`, the IC50 came to 15.1 µM. In turn, `CN(CCN1CCCCC1)c1ccc(-c2nc3cc(Sc4ccc(Cl)c(Cl)c4)ccc3[nH]2)cc1` registered an IC50 of 5.1 µM. The same measure, in the same setting: the figure for `CN(CCN1CCCCC1)c1ccc(-c2nc3ccc(C(=O)c4ccccc4)cc3[nH]2)cc1` is 11.3 µM; for `CN(CCN1CCCCC1)c1ccc(-c2nc3ccc(OCc4ccccc4)cc3[nH]2)cc1` it is 15.4 µM; for `c1ccc(-c2ccc3nc(-c4ccc(NCCN5CCCCC5)cc4)[nH]c3c2)cc1` it is 11.9 µM. Same read-out and setting: the figure for `CN(CCN1CCCCC1)c1ccc(-c2nc3ccc(Oc4ccc(Cl)c(Cl)c4)cc3[nH]2)cc1` is 6.4 µM; for `CN(CCN1CCCCC1)Cc1ccc(-c2nc3cc(Cl)c(Cl)cc3[nH]2)cc1` it is 3.2 µM; for `CN(CCN1CCCCC1)c1ccc(-c2nc3ccc(NCCCCCc4ccccc4)cc3[nH]2)cc1` it is 6.7 µM. The compound `CN(CCN1CCCCC1)c1ccc(-c2cc3cc(Cl)ccc3[nH]2)cc1` showed an IC50 of 9.9 µM.

Compound `CN(CCN1CCCCC1)c1ccc(-c2nc3ccc(Cc4ccccc4)cc3[nH]2)cc1` had an IC50 of 4.3 µM. Still for that read-out and setting: the figure for `CCN(CC)CCN(C)c1ccc(-c2nc3cc(Cl)c(Cl)cc3[nH]2)cc1` is 6.8 µM; for `CCN(CC)CCN(CCN(CC)CC)c1ccc(-c2nc3cc(Cl)c(Cl)cc3[nH]2)cc1` [drawing 8] it is 11.1 µM; for `CN(CCN1CCCCC1)c1ccc(-c2nc3cc(Cl)c(Cl)cc3[nH]2)cc1` [drawing 9] it is 13.4 µM. Compound `CN(CCN1CCCCC1)c1ccc(-c2nc3ccc(Cl)cc3[nH]2)cc1` [drawing 11] showed an IC50 of 5.9 µM. On the same count and under the same terms, the figure for `CN(CCN1CCCCC1)c1ccc(-c2nc3cc(Cl)c(F)cc3[nH]2)cc1` [drawing 12] is 9.6 µM; for `Cc1ccc2nc(-c3ccc(N(C)CCN4CCCCC4)cc3)[nH]c2c1` [drawing 13] it is 8.7 µM.

In turn, `Cc1cc2nc(-c3ccc(N(C)CCN4CCCCC4)cc3)[nH]c2cc1C` [drawing 14] registered a concentration for half-maximal inhibition (IC50) of 6.3 µM.

The next data set concerns T lymphocyte blast cells (CD3-Blasts). As to the kind of experiment: CD3-Blast Chemotaxis Assay (transendothelial migration to MCP-1). It counts as cell-based, human. The conditions noted are these: 10 μM compound; MCP-1 about 10 nM; ECV304 endothelial coated Transwells. The source says: Recombinant human MCP-1 was obtained from Peprotech (Rockey Hill, N.J.). T lymphocyte blast cells (CD3-Blasts) were generated by standard protocols (Coligan, J. E., A. M. Kruisbeek, D. H. Macgulies, E. M. Shevach, and W. Strober, editors. 1992. Current Protocols in Immunology. John Wiley and Sons, New York 7.1.2, 7.10.1-7.10. 10). Briefly, human peripheral blood mononuclear cells (PBMC) were isolated from heparinized venous blood by Percoll density gradient centrifugation (d=1.088) at room temperature. RBCs were removed by hypotonic lysis or dextran sedimentation. Blast cells were generated by incubating 2×10^6 PBMC in 24-well tissue culture plates that were coated with 2.5 μg of an anti-CD3 monoclonal antibody (identified as TR66, a gift from Dr. A. Lanzivecchia; similar monoclonal antibody is HIT3a, from Parmingen #30111A) at 37° C. for 48 to 72 hours, and then transferring 12 wells to T25 or T75 flasks with RPMI (Roswell Park Memorial Institute 1640, a growth cell medium available from Gibco/RBL, Inc., New York)+10% FCS (fetal calf serum)+50 units/ml IL-2. The cells are expanded and cultured for up to 3 weeks. CD3-Blast chemotaxis was assessed no sooner than 3 to 4 days after transfer to the IL-2 containing medium using a modification of a transendothelial migration assay (Carr. M. W., S. J. Roth, B. Luther, S. S. Rose, and T. A. Springer. 1994. Monocyte chemoattractant protein 1 acts as a T-lymphocyte chemoattractant. Proc. Natl. Acad. Sci. USA 91:3652-6). The endothelial cells used for this assay were the endothelial cell line ECV304. (ECV304 was from the European Collection of Animal Cell Cultures, Porton Downs, UK, assession #92091712). Endothelial cells were cultured on 6.5 mm diameter Transwell culture inserts (Costar) with a […] pore size. […] Background migration was determined by counting cells that migrated in the absence of MCP-1 in the lower chamber. […] The percent inhibition by compounds of directed migration was determined by the following formula: [drawing 32] […]
“N-[4-(5,6-dichloro-1H-benzimidazol-2-yl)-phenyl]-N-(2-diethylaminoethyl)-N-methyl, N-diethyl-ethane-1,2-diamine [Example 3]”: the “% Inhibition of Chemotaxis at 10 μM” value is 95% and 102%.
